Numbers after ± are expanded uncertainties. Values belong to the molecule of their own block, whether it stands above or below them.
Test: an = ratio of the nth substance listed
Conditions: 298.15 K; for surface tension liquid-gas: Ring tensiometer; for viscosity: 101 kPa, Liquid, Concentric cylinders viscometry

surface tension liquid-gas (a1 = 3.5): 47.5 ± 0.8 mN/m | viscosity (a1 = 3.5): 110 ± 7 mPa·s
Compound: OCCCCCO [1,5-pentanediol] + C[N+](C)(C)CCO.[Cl-]

surface tension liquid-gas (a2 = 2): 56.5 ± 0.6 mN/m | viscosity (a2 = 2): 40 ± 2 mPa·s
Compound: C[N+](C)(C)CCO.[Cl-] [choline chloride] + OCCO

surface tension liquid-gas (a2 = 2): 68.7 ± 1.1 mN/m | viscosity (a2 = 2): 296 ± 32 mPa·s
Compound: C[N+](C)(C)CCO.[Cl-] [choline chloride] + OCC(O)CO

Further lines, the molecule ahead of its results:

Compound: O.O.O=C(O)C(=O)O [ethanedioic acid dihydrate] + C[N+](C)(C)CCO.[Cl-]
surface tension liquid-gas (a1 = 1): 60.8 ± 1 mN/m | viscosity (a1 = 1): 767 ± 140 mPa·s

Compound: OCCCCO [1,4-butanediol] + C[N+](C)(C)CCO.[Cl-]
surface tension liquid-gas (a1 = 3): 55.8 ± 0.9 mN/m | viscosity (a1 = 3): 94 ± 6 mPa·s

Compound: NC(N)=O [urea] + C[N+](C)(C)CCO.[Cl-]
surface tension liquid-gas (a1 = 2): 71.6 ± 1.2 mN/m | viscosity (a1 = 2): 849 ± 150 mPa·s

Source: the NIST ThermoML archive (doi:10.1016/j.fluid.2017.05.008)
